According to US20020155064A1, “Method for detection and localization of malignant human tumours” (priority 1997, published 2002):

Test system: neurotensin receptors
Assay: Receptor autoradiography displacement of [125I]-neurotensin binding on tumour tissue sections
Conditions: tissue sections from human differentiated ductal pancreatic adenocarcinoma; 40,000 cpm/100 µl [125I]-neurotensin, increasing concentrations of unlabelled peptide; 4° C., 60 minutes; FIG. 1
Experimental: Receptor autoradiography is performed on 10- and 20-mm thick cryostat sections of the various tumour samples, as described by Reubi et al. (Cancer Res. 1990, 50, 5969-5977). […] After incubation, the sections are washed for eight minutes at 4° C. in four consecutive baths containing 50 mM Tris-HCl buffer, pH 7.6, dipped in ice-cold water, and then quickly dried in a refrigerator under a stream of cold air. The sections are subsequently exposed to a ^3H-Ultrofilm for 1 week, to detect the precise location of the radioactivity. […] Each point represents the optical density of binding measured in the tumour area. Non-specific binding is subtracted from all values.

Question: For “Ac-Arg-Arg-Pro-Tyr-Ile-Leu-OH [acetyl-neurotensin 8-13]”, which “displacement of [125I]-neurotensin binding” value is on record?
Answer: Complete displacement
